Data published in paper PMC8699021, “Which Properties Allow Ligands to Open and Bind to the Transient Binding Pocket of Human Aldose Reductase?” (Biomolecules, 2021).

Experiments:
[1] = target: T1, ALR-2 (human aldose reductase, EC 1.1.1.21) (Homo sapiens, UniProt P15121); test: ITC direct titration; type: binding
T1 construct: gene AKR1B1; one molecule per asymmetric unit
Text: ITC direct titration on ALR-2 (human aldose reductase, EC 1.1.1.21)

[2] = target: T1, ALR-2 (human aldose reductase, EC 1.1.1.21); test: ITC direct titration; X-ray; type: binding
Text: ITC direct titration; X-ray on ALR-2 (human aldose reductase, EC 1.1.1.21)

| Compound | Kd [1] | Kd [2] |
| --- | --- | --- |
| O=C(O)COc1cc(F)ccc1C(=O)NCc1nc2ccccc2s1 [compound 9, inhibitor 9] | 420 ± 80 nM |  |
| C[S+]([O-])c1cccc(CNC(=O)c2ccc(F)cc2OCC(=O)O)c1 (stereo not drawn) [compound 3, 2-(5-fluoro-2-((3-(methylsulfinyl)benzyl)carbamoyl)phenoxy)acetic acid] |  | 5000 ± 600 nM |
| O=C(O)COc1cc(F)ccc1C(=O)NCc1cccc(B(O)O)c1 [compound 4, 2-(2-((3-boronobenzyl)carbamoyl)-5-fluorophenoxy) acetic acid] |  | 2300 ± 300 nM |
